Data on one molecule can be found in ChEMBL document CHEMBL1133645, “(S)-4-Methyl-2-(methylamino)pentanoic acid [4, 4-bis(4-fluorophenyl)butyl]amide hydrochloride, a novel calcium channel antagonist, is efficacious in several animal models of pain” (J Med Chem, 2000).

A short description of assay [1]: Electrophysiology tested by the voltage clamp assay using superior cervical ganglion calcium neuron (SCGCa). The note with it: Rattus norvegicus. The class given is functional, tissue-based.
In assay [2] the target is Voltage-gated L-type calcium channel (Rattus norvegicus, UniProt P22002+Q02485+P27732). In words: L-type calcium channel blockade in A10 smooth muscle cells by Oregon Green 488 Bapta-1 dye. The format is functional, cell-based.
Assay [3] in a line: Electrophysiology tested by the voltage clamp assay using superior cervical ganglion potassium neuron (SCGK). As to conditions: Rattus norvegicus. The class given is functional, tissue-based.
The nature of assay [4]: Intravenous administration of dose resulting in 50% reduction in the number of writhes in male CF-1 mice. As to conditions: Mus musculus. The class given is functional.
Assay [5] can be described thus: Electrophysiology tested by the voltage clamp assay using superior cervical ganglion sodium neuron (SCGNa). The format is functional, tissue-based. As to conditions: Rattus norvegicus.
The subject of assay [6] is Rattus norvegicus. In words: Dose given at 15 and 30 mg/kg over 10 min resulting in 50% reduction in the number of flinches per minute when administarted intravenously. The note with it: iv.
Assay [7] is filed under the species Rattus norvegicus. The experiment in a line: Intrathecal bolus injection of 12.5-100 microg of dose resulting in 50% reduction in the amount of foot withdraw responding to repeated mechanical stimuli.
For assay [8], the system named is Rattus norvegicus. In words: Oral administration of dose resulting in 50% reduction in the number of flinches per minute.
Another assay has as its system Mus musculus. The experiment in a line: Intravenous administration of dose required to prevent clonic seizures and tonic extension seizure of forelimbs and hindlimbs. As to conditions: Hindlimb. The format is functional.

For `CN[C@@H](CC(C)C)C(=O)NCCCC(c1ccc(F)cc1)c1ccc(F)cc1.Cl`, the 50% inhibitory concentration (IC50) (as a rule, the concentration at which inhibition is half-maximal) in assay [1] was found to be 1.3 µM; in [2] it was 0.4 µM; in assay [3] it was 9.9 µM; in assay [5], 5.1 µM. For the same molecule, the ED50 in assay [4] was 4.46 mg/kg; in the assay on Rattus norvegicus [6], 16 mg/kg; in the assay listed under Rattus norvegicus [7], 23 µg; in the assay on Rattus norvegicus [8], 87 mg/kg; in the assay with Mus musculus, 4.05 mg/kg.
